Measured values as given in patent publication US20100087650A1, “(1R,1'R)-ATRACURIUM SALTS SEPARATION PROCESS” (CHEMAGIS LTD., priority 2007, published 2010).

How the values were obtained:
[1] = Stability of (1R,1′R)-atracurium besylate solution in different buffers at room temperature (HPLC, USP procedure); assay type: physicochemical; conditions: for % of cisatracurium besylate after 24 hours / % of cisatracurium besylate at T = 0: 90% buffer/10% methanol
Experimental: (§1) The stability of the (1R,1′R)-atracurium besylate solution at room temperature for time periods of up to 24 hours was checked using different types of buffers (varying by the nature of the cation and the anion). The diluent was a mixture of 90% buffer and 10% methanol. The Cation concentration in each buffer was 20 mM. The HPLC conditions were according to the USP procedure. The results are depicted in Tables 11 and 12. The degradation (D), according to the data presented in Table 11, was calculated as follows: [formula] wherein, X0=% of cisatracurium at T0, and X24=% of cisatracurium at after 24 hours.

[2] = Stability of (1R,1′R)-atracurium besylate at different pH values in Na+CH3COO−/CH3COOH buffer; assay type: physicochemical; conditions: T0 to 21.0 hours
[3] = more potent than atracurium besylate itself; cited from earlier work
[4] = Stability of (1R,1′R)-atracurium besylate at different pH values in Na+CH3COO−/CH3COOH buffer; assay type: physicochemical; conditions: for % degradation: T0 to 21.0 hours
Experimental: as §1, with “12. […]” for “12.”, “(D)” for “(D),”, “12” for “11,”, “X21=%” for “X24=%”

[5] = Stability of (1R,1′R)-atracurium besylate sample solution at pH 1.0 and 2.0 (nitrate buffer) at room temperature and 4° C.; assay type: physicochemical
Experimental: A sample solution of (1R,1′R)-atracurium besylate (10 mg/ml) was prepared using two buffer solutions at pH values of 1.0 and 2.0 and analyzed on the C18 stationary phase by gradient elution [20 mM KNO3 buffer (at pH corresponding to sample preparation)—methanol]. […] [formula] wherein, X0=% of cisatracurium at T0, and X6/26=% of cisatracurium at after 6 or 26 hours.

[6] = CaBr2/HBr buffer pH 3.5, 20 mM cation
[7] = K+H2PO4 buffer pH 3.0, 20 mM cation
[8] = NH4+CH3COO−/CH3COOH buffer pH 3.5, 20 mM cation
[9] = NH4+CH3COO−/HCOOH buffer pH 3.5, 20 mM cation
[10] = Na+CH3COO−/CH3COOH buffer pH 3.5, 20 mM cation
[11] = Na+NO3−/HNO3 buffer pH 3.0, 20 mM cation
[12] = diethylamine/CH3COOH buffer pH 3.5, 20 mM cation
[13] = triethylamine/CH3COOH buffer pH 3.5, 20 mM cation
[14] = pH = 1, room temperature, 6 hours
[15] = pH = 1, room temperature, 26 hours
[16] = pH = 2, room temperature, 6 hours

## COc1ccc(C[C@@H]2c3cc(OC)c(OC)cc3CC[N@+]2(C)CCC(=O)OCCCCCOC(=O)CC[N@@+]2(C)CCc3cc(OC)c(OC)cc3[C@H]2Cc2ccc(OC)c(OC)c2)cc1OC [cisatracurium besylate, 1R-cis-1′R-cis-2,2′2,2′-[1,5-pentanediylbis[oxy(3-oxo-3,1-propanediyl)]]bis[1-[(3,4-dimethoxyphenyl)methyl]-1,2,3,4-tetrahydro-6,7-dimethoxy-2-methyl-isoquinolinium dibenzenesulfonate]
[1]; [6]
  % of cisatracurium besylate after 24 hours: 54.4%
  % of cisatracurium besylate at T = 0: 54.4%
[1]; CaBr2/HBr buffer pH 3.5, 24 hours
  % degradation: 0%
[1]; [7]
  % of cisatracurium besylate after 24 hours: 53.7%
  % of cisatracurium besylate at T = 0: 54.7%
[1]; K+H2PO4 buffer pH 3.0, 24 hours
  % degradation: 1.8%
[1]; [8]
  % of cisatracurium besylate after 24 hours: 52.9%
  % of cisatracurium besylate at T = 0: 54.7%
[1]; NH4+CH3COO−/CH3COOH buffer pH 3.5, 24 hours
  % degradation: 3.3%
[1]; [9]
  % of cisatracurium besylate after 24 hours: 54.3%
  % of cisatracurium besylate at T = 0: 54.6%
[1]; NH4+CH3COO−/HCOOH buffer pH 3.5, 24 hours
  % degradation: 0.5%
[1]; [10]
  % of cisatracurium besylate after 24 hours: 52.5%
  % of cisatracurium besylate at T = 0: 54.5%
[1]; Na+CH3COO−/CH3COOH buffer pH 3.5, 24 hours
  % degradation: 3.7%
[1]; [11]
  % of cisatracurium besylate after 24 hours: 54.5%
  % of cisatracurium besylate at T = 0: 54.5%
[1]; Na+NO3−/HNO3 buffer pH 3.0, 24 hours
  % degradation: 0%
[1]; [12]
  % of cisatracurium besylate after 24 hours: 53.2%
  % of cisatracurium besylate at T = 0: 54.7%
[1]; diethylamine/CH3COOH buffer pH 3.5, 24 hours
  % degradation: 2.7%
[1]; [13]
  % of cisatracurium besylate after 24 hours: 52.1%
  % of cisatracurium besylate at T = 0: 54.4%
[1]; triethylamine/CH3COOH buffer pH 3.5, 24 hours
  % degradation: 4.2%
[2]; pH 3.0, Na+CH3COO−/CH3COOH buffer
  % degradation: 6.4%
[2]; pH 4.0, Na+CH3COO−/CH3COOH buffer
  % degradation: 10.3%
[2]; pH 5.0, Na+CH3COO−/CH3COOH buffer
  % degradation: 28.4%
[2]; pH 5.5, Na+CH3COO−/CH3COOH buffer
  % degradation: 48.1%
[3]
  potency relative to atracurium besylate: 3-4 times
[4]; pH 3.0, Na+CH3COO−/CH3COOH buffer, 0.0 hours
  % of cisatracurium besylate: 53.4%
[4]; pH 3.0, Na+CH3COO−/CH3COOH buffer, 10.0 hours
  % of cisatracurium besylate: 51.3%
[4]; pH 3.0, Na+CH3COO−/CH3COOH buffer, 21.0 hours
  % of cisatracurium besylate: 50.0%
[4]; pH 3, after 20 hours
  change of % area of the 1R-cis,1′R-cis isomer (FIG. 7): only slightly reduced
[4]; pH 3.5, Na+CH3COO−/CH3COOH buffer, 0.0 hours
  % of cisatracurium besylate: 53.6%
[4]; pH 3.5, Na+CH3COO−/CH3COOH buffer, 10.0 hours
  % of cisatracurium besylate: 51.0%
[4]; pH 3.5, Na+CH3COO−/CH3COOH buffer, 21.0 hours
  % of cisatracurium besylate: 49.2%
[4]; pH 3.5, Na+CH3COO−/CH3COOH buffer
  % degradation: 8.2%
[4]; pH 4.0, Na+CH3COO−/CH3COOH buffer, 0.0 hours
  % of cisatracurium besylate: 53.4%
[4]; pH 4.0, Na+CH3COO−/CH3COOH buffer, 10.0 hours
  % of cisatracurium besylate: 50.5%
[4]; pH 4.0, Na+CH3COO−/CH3COOH buffer, 21.0 hours
  % of cisatracurium besylate: 47.9%
[4]; pH 4.5, Na+CH3COO−/CH3COOH buffer, 0.0 hours
  % of cisatracurium besylate: 53.9%
[4]; pH 4.5, Na+CH3COO−/CH3COOH buffer, 10.0 hours
  % of cisatracurium besylate: 49.9%
[4]; pH 4.5, Na+CH3COO−/CH3COOH buffer, 21.0 hours
  % of cisatracurium besylate: 46.2%
[4]; pH 4.5, Na+CH3COO−/CH3COOH buffer
  % degradation: 14.3%
[4]; pH 5.0, Na+CH3COO−/CH3COOH buffer, 0.0 hours
  % of cisatracurium besylate: 53.6%
[4]; pH 5.0, Na+CH3COO−/CH3COOH buffer, 10.0 hours
  % of cisatracurium besylate: 46.1%
[4]; pH 5.0, Na+CH3COO−/CH3COOH buffer, 21.0 hours
  % of cisatracurium besylate: 38.4%
[4]; pH 5.5, Na+CH3COO−/CH3COOH buffer, 0.0 hours
  % of cisatracurium besylate: 53.6%
[4]; pH 5.5, Na+CH3COO−/CH3COOH buffer, 10.0 hours
  % of cisatracurium besylate: 40.8%
[4]; pH 5.5, Na+CH3COO−/CH3COOH buffer, 21.0 hours
  % of cisatracurium besylate: 27.8%
[4]; pH 5.5, after 20 hours
  change of % area of the 1R-cis,1′R-cis isomer (FIG. 7): significantly reduced
[5]; pH = 1, 4° C., 0 hours
  % area of the cis-cis isomer: 54.9%
[5]; pH = 1, 4° C., 6 hours
  % area of the cis-cis isomer: 53.9%
  D, % (degradation): 1.8%
[5]; pH = 1, 4° C., 26 hours
  % area of the cis-cis isomer: 52.8%
  D, % (degradation): 3.8%
[5]; pH = 1, room temperature, 0 hours
  % area of the cis-cis isomer: 54.9%
[5]; [14]
  % area of the cis-cis isomer: 50.2%
  D, % (degradation): 8.6%
[5]; [15]
  % area of the cis-cis isomer: 38.8%
  D, % (degradation): 29.3%
[5]; pH = 2, 4° C., 0 hours
  % area of the cis-cis isomer: 54.8%
[5]; pH = 2, 4° C., 6 hours
  % area of the cis-cis isomer: 54.8%
  D, % (degradation): 0%
[5]; pH = 2, 4° C., 26 hours
  % area of the cis-cis isomer: 54.7%
[5]; pH = 2, 4° C., 26 hours, nitrate buffer
  D, % (degradation): 0.2%
[5]; pH = 2, room temperature, 0 hours
  % area of the cis-cis isomer: 54.8%
[5]; [16]
  % area of the cis-cis isomer: 54.5%
  D, % (degradation): 0.5%
[5]; pH = 2, room temperature, 26 hours
  % area of the cis-cis isomer: 53.8%
[5]; pH = 2, room temperature, 26 hours, nitrate buffer
  D, % (degradation): less than 2%
[5]; pH = 2, room temperature, 26 hours, nitrate buffer, listed as cis-cis isomer
  D, % (degradation): 1.8%
[5]; separation conditions of the invention (mildly acidic or buffered aqueous mobile phase)
  stability under the separation conditions: substantially stable
